In patent US8948863B2, “Photokinetic ocular drug delivery methods and apparatus” (priority 2009, dated 2015):

What was measured:
[1] = Histological examination of Franz cell mounted sclera after PODD exposure; design: species or system ovine; details: MTX formulation, 60 minute exposure, 350 nm LED light
Description: (§1) Sclera samples were taken and placed in formalin as follows: Normal control sclera with no exposure to drug or light, Franz cell 60 minute control drug only exposure and Franz cell 60 minute exposure to both drug and 350 nm LED light. Fixed slides were evaluated for structural integrity and gross appearance by a pathologist blinded as to the origin of the sample tissue.
as §1, with “Normal” for “Sclera samples were taken and placed in formalin as follows: Normal”, “light were taken and placed in formalin.” for “light.”, “masked” for “blinded”

[2] = Franz cell sclera tissue permeation, PODD (pulsed LED light) vs passive controls; details: for levels of MTX recovered from Franz recipient cell: p<0.05 vs passive controls
Description: A traditional “up and down” vertical Franz cell skin perfusion apparatus as described above was adapted and used for this sclera tissue permeation model. […] Two wavelengths of light were selected of this facilitated permeation study. Samples of the Franz recipient solution were taken at 15, 30 and 60 minutes of photokinetic exposure and passive controls and analyzed by HPLC.
Franz cells (PermeGear, Inc, Bethlehem Pa.) having an 11.28 mm diameter permeation area, 1.0 cm^2 were used in the MTX experiment. A photokinetic ocular drug delivery (PODD)-modified Franz cell testing device was configured so that it accommodated the placement of LEDs within the donor chamber. The cells were placed within an aluminum block heater 35.5° C. on a magnetic stir bar setup (Custom manufactured by PermeGear, Inc, Bethlehem Pa.).
Discrete wavelength LEDs were purchased from Roithner Lasertechnick GmbH, Vienna, Austria as follows: 351 nm, #RTL350-30; 370 nm, #RLS-UV370. Peak emitting wavelengths are ±10 nm at the 50% radiance output. The LEDs were driven by a square wave pulse generator built by the investigators for this study. The adjustable square wave pulse generator provided pulsed electrical energy set at 24 cycles per second (CPS) with a 50% pulse duration (ON 50%, OFF 50% of the time). Driver current to the LEDs was limited to or slightly below the manufacturers specified drive current level to avoid exogenous heat generation. […] A donor cell contains the test drug (in this example, methotrexate (MTX)) in a solvent formulation. The recipient cell is filled with a balance salt solution. Samples for chemical analysis are taken from the side arm 27 of the Franz apparatus as discussed above. Control cells are set up the same, but without the LED. LEDs are driven by a square wave pulse generator (not shown) at a voltage slightly less than the manufacture's specified voltage.
Ovine eyes were procured by enucleation within one hour after euthanasia and placed in tissue culture medium with antibiotics and antimycotics and refrigerated at 4° C. Sclera tissue was dissected from the eyes and placed between the donor and recipient chambers of the Franz apparatus. Sclera was stored for a maximum of 30 hours in the tissue culture at 4° C. before the start of the experiment.
Methotrexate (MTX; (4-Amino-10-methylfolic acid hydrate); available from Sigma-Aldrich Corp., St. Louis, Mo.) was dissolved in a permeation enhancement carrier of water, 30% propylene glycol, 5% Ethyl Lactate, 0.1% Azone, and 0.75% hyaluronic acid as a gelling agent, with 0.1% neolone 850 as a preservative. An infinite donor sink model was used wherein 0.75 grams of the drug formulation (1.875 mg of each) was placed in the Franz donor cells. Hanks isotonic salt solution served as the Franz recipient cell fluid.
HPLC analysis was performed according to a method developed in our lab. Briefly, a Beckman Coulter system consisting of 125 pumps, 508 auto sampler and 168 diode array detector was used with an XTerra RP-C18, 150×40 mm, 3 μm column. The analytes were eluted with a gradient mobile phase from 25-30% Methanol in HPLC grade water with 0.1% Trifluoroacetic Acid (TFA) and flow rate of 0.7 ml/min. 32 Karat™ software (Beckman Coulter, Inc.) was used for acquisition of chromatograms.
The Franz recipient cell balanced salt solution was analyzed by the HPLC method for MTX concentration.

[3] = rabbit
Description: Exogenous human insulin can be differentiated from the endogenous rabbit insulin; the human insulin FITC (fluorescein isothiocyanate) fluorescent tag further allows for tracking of the drug within the tissues.
In this series, rabbits were fitted with transscleral photokinetic device, such as shown in FIG. 1 of this disclosure, for one hour. […] Images were taken of the posterior optic disc, the area where the retina, optic nerve and blood vessels come together on the posterior segment of the eye.

[4] = Photokinetic transdermal permeation study; assay type: in vitro ADME, human; details: similar photokinetic conditions
Excerpt: Scleral tissue is more permeable than human skin. The practical upper molecular weight limit with the PODD system is unknown and may be determined by the specific molecular configuration rather than molecular weight per se.

CN(Cc1cnc2nc(N)nc(N)c2n1)c1ccc(C(=O)N[C@@H](CCC(=O)O)C(=O)O)cc1 [MTX, 4-Amino-10-methylfolic acid hydrate]
histological examination, PODD exposure compared to passive control and normal sclera [1]: no differences between the samples | structural integrity of the sclera [1]: grossly intact and undamaged | levels of MTX recovered from Franz recipient cell ([2]; PODD 350 nm group, 24 CPS, 30 and 60 minute time points): significant | levels of MTX recovered from Franz recipient cell ([2]; PODD 370 nm group, 24 CPS, 15, 30 and 60 minute time points): significant | total MTX flux (compared with the therapeutic level) ([2]; PODD, up to 60 minutes, 1.0 cm^2 ovine sclera): < 400 µg | flux rate, 370 nm group compared to the 350 nm group ([2]; all time points (15, 30, 60 minutes), 24 CPS): much higher flux rate | MTX permeation through the scleral tissue, PODD cells ([2]; both wavelengths of light tested (350 nm and 370 nm), 24 CPS, vs passive controls): improvement

FITC-labeled human insulin: human insulin modified at the N-terminus of the B-chain with an FITC conjugate/tag, 5733 Daltons, Invitrogen
fluorescence in the optic disc, passive permeation [3]: did not show fluorescence | fluorescence image of the optic disc after 1 hour of PODD ([3]; in vivo): reached the posterior segment of the rabbit's eye | fluorescence, contralateral eye ([3]; in vivo): no fluorescence

hyaluronic acid
flux rates through intact human skin [4]: significant flux rates
